From patent publication US20220402862A1 (Intellia Therapeutics, Inc., priority 2019, published 2022)

What was measured:
[1] = RNA encapsulation efficiency of LNPs (Ribogreen fluorescence assay); assay type: physicochemical
In short: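 Encapsulation efficiency is (Total RNA − Free RNA)/Total RNA. Free RNA was quantified by RiboGreen fluorescence (488/525 nm, ~10 min, RT, dark) in plain TE buffer; total RNA was quantified after LNP lysis with 0.2% Triton X-100, both against RNA standard curves.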

[2] = Dynamic light scattering of LNPs: Z-average diameter, number average diameter, PDI; assay type: physicochemical
In short: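 Values reported are the Z-average (intensity-weighted mean size), the number-average diameter and the PDI (spread of sizes, 0 = fully uniform). All three came from dynamic light scattering of LNP preparations after dilution in PBS.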

[3] = test system: Transthyretin (TTR); test: Serum TTR ELISA in mice after LNP dosing; assay type: in vivo, CD-1 female mice; conditions: for Serum TTR % TSS: mouse serum TTR relative to TSS control; for Serum TTR: mouse serum
In short: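 Serum mouse TTR was quantified by ELISA at 10,000-fold dilution for 0.1 mg/kg and 10,000/2,500-fold for 0.3 mg/kg. Samples came from female CD-1 mice (6–10 weeks) killed 6 or 7 days after a single intravenous LNP dose, usually 0.1 mg/kg.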

[4] = test system: TTR rat gene; test: In vivo editing in rat liver, sgRNA targeting TTR (G534), % indel by NGS; parameters: species or system Sprague Dawley female rats; conditions: G534 sgRNA + Cas9 mRNA LNP, Experiment 109
Experimental: Sprague Dawley female rats ranging from 6-7 weeks of age were used in each study. Each animal was weighed and dosing solutions were prepared based on body weight. LNPs were dosed via the lateral tail vein in a volume of 0.35 mL per animal (approximately 2 mL per kilogram body weight). The animals were periodically observed for adverse effects for at least 24 hours post dose.
For studies measuring in vivo editing in liver, animals were dosed at 0.1 mg/kg or 0.3 mg/kg. Animals were euthanized by CO2 asphyxiation 6 days post dose. At necropsy, the liver was collected for editing analysis by NGS and blood was collected into serum separator tubes for serum TTR measurement.
(§1) In brief, to quantitatively determine the efficiency of editing at the target location in the genome, genomic DNA was isolated and deep sequencing was utilized to identify the presence of insertions and deletions introduced by gene editing.
(§2) PCR primers were designed around the target site (e.g., within B2M), and the genomic area of interest was amplified. Additional PCR was performed according to the manufacturer's protocols (Illumina) to add the necessary chemistry for sequencing. The amplicons were sequenced on an Illumina MiSeq instrument. The reads were aligned to the mouse or rat reference genome (e.g., GRCm38) after eliminating those having low quality scores. The resulting files containing the reads were mapped to the reference genome (BAM files), where reads that overlapped the target region of interest were selected and the number of wild type reads versus the number of reads which contain an insertion, substitution, or deletion was calculated.
(§3) The editing percentage (e.g., the “indel efficiency” or “percent indels”) was defined as the total number of sequence reads with insertions or deletions over the total number of sequence reads, including wild type.
In vivo delivery in a rat model was assessed by measuring editing efficiency for materials delivered with formulations including various amine lipid compounds. Cas9 mRNA (SEQ ID NO: 6) was formulated as LNPs with an sgRNA targetting the TTR rat gene (G534, SEQ ID NO: 5). LNPs were formulated and characterized as described in Example 123. Analysis of average particle size, polydispersity (PDI), total RNA content and encapsulation efficiency of RNA are shown in Table 10.
Sprague Dawley female rats were dosed i.v. at 0.1 or 0.3 mg/kg and assessed for editing in liver.

[5] = test system: Transthyretin (TTR); test: Serum TTR measurement in rats after LNP dosing; assay type: in vivo, Sprague Dawley female rats; conditions: Experiment 109; for Serum TTR % TSS: rat serum TTR relative to TSS control; for Serum TTR: rat serum, G534 sgRNA + Cas9 mRNA LNP
[6] = pKa measurement of unformulated amine lipid (fluorescence, method of Jayaraman et al.); assay type: physicochemical; conditions: 100 μM in 0.1 M phosphate buffer, pH 2.0-12.0
Experimental: The pKa of each amine lipid was determined according to the method in Jayaraman, et al. (Angewandte Chemie, 2012) with the following adaptations. […] Lipid was diluted to 100 μM in 0.1 M phosphate buffer (Boston Bioproducts) where the pH ranged from 2.0-12.0. Fluorescence intensity was measured using excitation and emission wavelengths of 321 nm and 448 nm.

[7] = test system: mouse TTR gene; test: In vivo editing in mouse liver, sgRNA targeting TTR (G282 or G502), % indel by NGS; parameters: species or system CD-1 female mice; conditions: guide G502, i.v. 0.1 mg/kg, sgRNA:Cas9 mRNA 1:2 w/w, experiments 106, 107
Experimental: CD-1 female mice ranging from 6-10 weeks of age were used in each study. Animals were weighed and grouped according to body weight for preparing dosing solutions based on group average weight. LNPs were dosed via the lateral tail vein in a volume of 0.2 mL per animal (approximately 10 mL per kilogram body weight). The animals were periodically observed for adverse effects for at least 24 hours post dose. For studies measuring in vivo editing in liver, CD-1 female mice were dosed at 0.1 mg/kg unless otherwise noted. Animals were euthanized at 6 or 7 days by ex sanguination via cardiac puncture under isoflurane anesthesia. Liver tissue was collected from each animal for DNA extraction and analysis. Blood was collected into serum separator tubes or into tubes containing buffered sodium citrate for plasma as described herein. Cohorts of mice were measured for editing by Next-Generation Sequencing (NGS).
as §1, §2, §3
We assessed in vivo editing efficiency for materials delivered with formulations including various amine lipid compounds. Editing was measured using either G282 (SEQ ID No: 1) which targets the mouse TTR gene or G650 (SEQ ID No. 2) which targets the mouse B2M gene. Lipids described above were assessed for efficacy through in vivo editing experiments. LNPs were formulated at a 1:1 or 1:1.3 w/w ratio of sgRNA to Cas9 mRNA, and at an N/P ratio of about 6. Molar concentrations of lipids in the lipid component of the LNPs are used at mol % amine lipid/DSPC/cholesterol/PEG-2k-DMG of 50/9/38/3. The final LNPs were characterized to determine the encapsulation efficiency, polydispersity index, and average particle size according to the analytical methods provided above. Analysis of average particle size, polydispersity (PDI), total RNA content and encapsulation efficiency of RNA are shown in Table 2.
To assess whether the editing was dose responsive, experiments were performed in vivo at various LNP dose levels. Cas9 mRNA of Example 120 was formulated as LNPs with an sgRNA targeting TTR (G282, SEQ ID NO: 1; or G502, SEQ ID NO: 4).
We assessed in vivo delivery by measuring editing efficiency for materials delivered with formulations that included various amine lipid compounds. Cas9 mRNA (SEQ ID NO: 6) was formulated as LNPs with an sgRNA targetting the TTR mouse gene (SEQ ID NO: 4). LNPs were formulated at a 1:2 w/w ratio of sgRNA to Cas9 mRNA, and at an N/P ratio of about 6. Molar concentrations of lipids in the lipid component of the LNPs are used at mol % amine lipid/DSPC/cholesterol/PEG-2k-DMG of 50/9/38/3. The final LNPs compositions were characterized and analyzed as described in Example 120. Analysis of average particle size, polydispersity (PDI), total RNA content and encapsulation efficiency of RNA are shown in Table 6.

[8] = LNP with G534 sgRNA and Cas9 mRNA, sg:mRNA 1:2, experiment 109
[9] = LNP, sg:mRNA 1:1, N/P about 6, 50/9/38/3, Table 2, Experiments 2-20
[10] = LNP, sg:mRNA 1:2, N/P about 6, 50/9/38/3, Table 6, Experiments 106-107

For `CCCCC/C=C\C/C=C\CCCCCCCC(=O)OCC(COC(=O)CCC(OCCCCCCCC)OCCCCCCCC)COC(=O)NCCN(CC)CC` (stereo not drawn) [Compound 12, 3-((4,4-bis(octyloxy)butanoyl)oxy)-2-((((2-(diethylamino)ethyl)carbamoyl)oxy)methyl)propyl (9Z,12Z)-octadeca-9,12-dienoate], the “% E (encapsulation efficiency)” value [1, 8] was 97%, the “Encapsulation (%)” value ([1]; LNP, sg:mRNA 1:1, N/P about 6, amine lipid/DSPC/cholesterol/PEG-2k-DMG 50/9/38/3, Table 2, Experiments 2-20) was 83% and the “Number mean (nm)” value [2, 8] was 62 nm. The PDI [2, 8] was 0.06, the “Z-avg (nm)” value [2, 8] was 80 nm and the “Number mean (nm)” value [2, 9] was 73.4 nm. The PDI [2, 9] was 0.007, the “Z-avg (nm)” value [2, 9] was 88.53 nm and the “Serum TTR % TSS” value ([3]; guide G282 experiments) was 81%. The “Serum TTR” value ([3]; guide G282 experiments, ELISA) was 736 µg/mL, the “Editing Mean % Indel” value ([4]; i.v. 0.1 mg/kg) was 37.6% and the “Editing Mean % Indel” value ([4]; i.v. 0.3 mg/kg) was 62.5%. The “Serum TTR % TSS” value ([5]; G534, i.v. 0.1 mg/kg) was 45.9 % TSS, the “Serum TTR % TSS” value ([5]; G534, i.v. 0.3 mg/kg) was 5.5 % TSS and the “Serum TTR” value ([5]; i.v. 0.1 mg/kg) was 744.2 µg/mL. The “Serum TTR” value ([5]; i.v. 0.3 mg/kg) was 89.1 µg/mL.
In the case of `CCCCC/C=C\C/C=C\CCCCCCCC(=O)OCC(COC(=O)CCC(OCCCCCCCC)OCCCCCCCC)COC(=O)NCCN1CCCC1` (stereo not drawn) [Compound 100, 3-((4,4-bis(octyloxy)butanoyl)oxy)-2-((((2-(pyrrolidin-1-yl)ethyl)carbamoyl)oxy)methyl)propyl (9Z,12Z)-octadeca-9,12-dienoate], the pKa [6] is reported as 7.2, the “% E” value ([1]; LNP, sg:mRNA 1:2, N/P about 6, 50/9/38/3, TTR sgRNA (SEQ ID NO: 4), Table 6, Experiments 106-107) is reported as 99% and the “Number mean (nm)” value [2, 10] is reported as 70 nm. For the same compound, the PDI [2, 10] was 0.04, the “Z-avg (nm)” value [2, 10] was 89 nm and the “Editing Mean % Indel” value [7] was 12%. For the same compound, the “Serum TTR % TSS” value ([3]; guide G502, i.v. 0.1 mg/kg) was 81.3% and the “Serum TTR” value ([3]; guide G502, i.v. 0.1 mg/kg) was 1017.4 µg/mL.
